Results taken from patent publication US5310667A (priority 1989, dated 1994).
Entries after “also recorded” stand apart in the source; their conditions may differ.

Key:
[1] = target: T1, pMON8186 encoded petunia EPSP synthase variant (glycine (101) to alanine and glycine (144) to aspartic acid) (Petunia hybrida, UniProt P11043, G173A/G216D); experiment: EPSP synthase kinetic constants (appKi glyphosate, appKm PEP); format: biochemical
T1 construct: GGT codon for glycine (144) in the mature petunia EPSP synthase; made in house; host or cells: E. coli SR481
Protocol: The balance of the #215 preculture (~750 μl) was used to inoculate 2 ml of MOPS medium containing 50 μg/ml carbenicillin and was shaken overnight at 37° C. to reach saturation. Plasmid DNA was isolated from an aliquot of the saturated culture using an alkaline lysis procedure. The plasmid was designated pMON8186. An aliquot of the pMON8186 plasmid was used to transform the E. coli host SR481 (described above) and reselected on MOPS medium containing 10 mM glyphosate and 50 μg/ml carbenicillin. A single glyphosate resistant colony of pMON8186 was picked off the selection plate and used to inoculate 3 ml of 2XYT bacterial medium containing 50 μg/ml carbenicillin. The culture was then aerated on rotating wheel at 37° C. until saturated, then it was used to inoculate a larger 500 ml culture. The large culture was grown to saturation by shaking it overnight at 37° C. in a water bath. The bacterial cells were lysed and the extracts were assayed for EPSPS activity.
Specifically, the bacterial cell paste was washed twice with 0.9% saline, suspended in buffer (100 mM Tris-HCl, 5 mM benzamidine HCl) and passed twice through the French Pressure Cell at 1000 psi. The cell extract was separated from the cells by centrifuging at 15,000 x gravity for 10 mins. at 5° C. It was desalted using Sephadex G-50 (Pharmacia, Piscataway, N.J.). The desalted extract was assayed for EPSP synthase activity as follows:
To an assay mix (40 μl) containing shikimate-3-phosphate (2 mM), ^14 C-phosphoenolpyruvate (1 mM, 1.2 mCi/mmol), ammonium molybdate (0.1 mM), potassium fluoride (5 mM) in 50 mM HEPES-KOH, pH 7, was added the extract and incubated at 25° C. for 2 mins. The reaction was quenched by the addition of 50 μl of 50 μl of 90% ethanol/0.1M acetic acid, pH 4.5. […] The radioactivity of the eluent was monitored using a Radiomatic Flo-One Beta Instrument. […] The EPSP synthase activity was determined by measurement of the conversion of ^14 C-PEP to ^14 C-EPSP synthase, both of which are resolved under the above conditions of chromatography. The protein content of the extract was determined by the method of Bradford (Biorad Labs, Calif.). The specific activity of the extract is expressed as nanomoles of EPSP synthase formed/min/mg protein.
Kinetic constants (appKm PEP and appKi glyphosate) were determined for EPSP synthase as described below. Substrate kinetic parameters were determined at pH 7.0 in 50 mM HEPES (N-[2-hydroxyethyl]piperazine-N'-[2-ethanesulfonic acid]) buffer in the presence of 2 mM S3P and varying amounts of ^14 C-PEP (10 μM-400 μM), for 2.0 minutes at 25° C. Reactions were quenched with 100 mM Na Acetate in ethanol, pH 4.5, centrifuged and analyzed for product EPSP formation by HPLC with flow radioactivity detection. […]

[2] = test system: tobacco plants transformed with glyphosate-tolerant petunia EPSP synthase gene (pMON567); experiment: Relative effect of glyphosate spraying on transformed tobacco; format: in vivo, Nicotiana tobacam CV H425; parameters: key: 0 = total kill, 10 = normal unsprayed plant; conditions: GT, 0 total kill, 10 no effect, best transformant
Protocol: Plasmid pMON530 DNA was digested with BglII and ClaI, to which was added the 330 bp BglII-EcoRI EPSP synthase 5' fragment from pMON536 and purified 1.4 kb EcoRI-ClaI EPSP synthase 3' fragment from pMON9566 and then treated with T4 DNA ligase. Following transformation a plasmid was isolated that carried the intact glycine (101) to alanine variant EPSP synthase coding sequence of petunia (with the coding sequence for the chloroplast transmit peptide) adjacent to the CaMV35S promoter. This plasmid was designated pMON567. Plasmid pMON567 was inserted into A. tumefaciens cells that contained helper plasmid pGV3111-SE.
A culture of A. tumefaciens cells containing pMON567/pGV3111-SE was contacted with leaf disks taken from tobacco plants (Nicotiana tobacam CV H425) as described by Horsch (1985). The Agrobacterium cells inserted the variant EPSP synthase gene into the chromosomes of the plant cells. Plant cells resistant to kanamycin were selected and regenerated into differentiated plants by the procedure of Horsch (1985).
Progeny of these plants were propagated and grown to a rosette diameter of about 10 cm corresponding to a plant age of about four weeks. The plants were sprayed with glyphosate at levels corresponding to 0.4, 2.0 and 3.6 pounds acid equiv./acre. The effect of glyphosate on the transformed plants were scored at 7, 14 and 28 days. The effect was translated to a numerical scale of 0-10 in which 0 represents total kill and 10 is the normal, unsprayed plant. […] The values represent the best transformant for both wild-type EPSP synthase and glyphosate-tolerant EPSP synthase genes.

[3] = test system: control petunia plants (wildtype or control vector pMON505); experiment: Plant response to glyphosate spraying; format: in vivo; conditions: 0.8 #/acre acid equivalent, isopropylamine salt, sprayed
Protocol: (§1) Four individual representative transgenic seedlings were selected, grown and tested in the testing procedure described below, along with four individual non-transformed (wild-type) petunia seedlings.
(§2) The plants were grown in a growth medium in a growth chamber at 26° C. with 12 hours of light per day. The plants were fertilized weekly with a soluble fertilizer and watered as needed. The plants were sprayed at a uniform and reproducible delivery rate of herbicide by use of an automated track sprayer. The glyphosate solution used was measured as pounds of glyphosate acid equivalents per acre, mixed as the glyphosate isopropylamine salt, with an ionic surfactant.
(§3) Four individual wild-type (non-transformed) petunia plants were selected for use as control plants. Four individual transformed plants containing the pMON546 vector were selected by kanamycin resistance as described by Horsch, et al. (1985).
(§4) The control plants and the transformed plants were sprayed with the isopropylamine salt of glyphosate at the application level listed in Table 2 below; the experimental results obtained are also summarized in Table 2.

[4] = test system: transformed petunia plants containing pMON546 (Chimeric EPSP); experiment: Plant response to glyphosate spraying; format: in vivo; conditions: 0.8 #/acre acid equivalent, isopropylamine salt, sprayed
Protocol: as §1, §2, §3, §4

[5] = target: T2, petunia EPSP synthase glycine (101) to alanine variant (Petunia hybrida, UniProt P11043, G173A); experiment: EPSP synthase kinetic constants (appKi glyphosate, appKm PEP); format: biochemical
T2 construct: made in house; host or cells: E. coli
Protocol: To an assay mix (40 μl) containing shikimate-3-phosphate (2 mM), ^14 C-phosphoenolpyruvate (1 mM, 1.2 mCi/mmol), ammonium molybdate (0.1 mM), potassium fluoride (5 mM) in 50 mM HEPES-KOH, pH 7, was added the extract and incubated at 25° C. for 2 mins. The reaction was quenched by the addition of 50 μl of 50 μl of 90% ethanol/0.1M acetic acid, pH 4.5. 70 μl of the reaction mixture was loaded on a SynchroPak AX100 HPLC column (0.4×25 cm) and the column was eluted with 0.5M potassium phosphate, pH 5.5 at 1 ml/min. The radioactivity of the eluent was monitored using a Radiomatic Flo-One Beta Instrument. (Radiomatics, Fla.). The EPSP synthase activity was determined by measurement of the conversion of ^14 C-PEP to ^14 C-EPSP synthase, both of which are resolved under the above conditions of chromatography. The protein content of the extract was determined by the method of Bradford (Biorad Labs, Calif.). The specific activity of the extract is expressed as nanomoles of EPSP synthase formed/min/mg protein.
Kinetic constants (appKm PEP and appKi glyphosate) were determined for EPSP synthase as described below. Substrate kinetic parameters were determined at pH 7.0 in 50 mM HEPES (N-[2-hydroxyethyl]piperazine-N'-[2-ethanesulfonic acid]) buffer in the presence of 2 mM S3P and varying amounts of ^14 C-PEP (10 μM-400 μM), for 2.0 minutes at 25° C. Reactions were quenched with 100 mM Na Acetate in ethanol, pH 4.5, centrifuged and analyzed for product EPSP formation by HPLC with flow radioactivity detection. HPLC conditions were 0.35 MKPi, pH 6.5, on a Synchropak AX100 column at 1.0 ml/min.

T2 sequence (P11043 73-516 G173A): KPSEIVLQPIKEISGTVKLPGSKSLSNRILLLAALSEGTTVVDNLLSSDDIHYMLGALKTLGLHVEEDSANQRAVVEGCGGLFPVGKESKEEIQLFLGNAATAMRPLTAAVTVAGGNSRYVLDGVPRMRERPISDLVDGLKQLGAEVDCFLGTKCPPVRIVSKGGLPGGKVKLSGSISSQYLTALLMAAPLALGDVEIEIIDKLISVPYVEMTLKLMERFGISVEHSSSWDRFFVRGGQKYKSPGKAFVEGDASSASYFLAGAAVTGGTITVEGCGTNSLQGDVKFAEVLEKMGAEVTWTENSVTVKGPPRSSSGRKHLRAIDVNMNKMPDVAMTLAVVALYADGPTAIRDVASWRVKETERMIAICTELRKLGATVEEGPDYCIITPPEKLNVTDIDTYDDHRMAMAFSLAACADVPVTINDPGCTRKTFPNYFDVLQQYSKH
T1 sequence (P11043 73-516 G173A/G216D): as the sequence (P11043 73-516 G173A) above, with G144D counted along it

With `O=C(O)CNCP(=O)(O)O` [glyphosate, N-phosphonomethylglycine] the Ki for glyphosate [1] was 348 µM, the Ki/Km ratio ([1]; Ki glyphosate / Km PEP) was 7.7 and the “Relative Effect of Glyphosate” value ([2]; 0.4 pounds/Acre, day 7) was 8.0. For the same compound, the “Relative Effect of Glyphosate” value ([2]; 0.4 pounds/Acre, day 14) was 8.0, the “Relative Effect of Glyphosate” value ([2]; 0.4 pounds/Acre, day 28) was 9.0 and the “Relative Effect of Glyphosate” value ([2]; 2.0 pounds/Acre, day 7) was 8.0. For the same compound, the “Relative Effect of Glyphosate” value ([2]; 2.0 pounds/Acre, day 14) was 8.3, the “Relative Effect of Glyphosate” value ([2]; 2.0 pounds/Acre, day 28) was 7.0 and the “Relative Effect of Glyphosate” value ([2]; 3.6 pounds/Acre, day 7) was 5.0. The “Relative Effect of Glyphosate” value ([2]; 3.6 pounds/Acre, day 14) was 7.4, the “Relative Effect of Glyphosate” value ([2]; 3.6 pounds/Acre, day 28) was 7.0 and the “Visual Appearance” value [3] was “completely dead; also recorded: killed”. The “Visual Appearance” value [4] was “growing well; also recorded: healthy and viable”, the Ki [5] was 2000 µM and the Ki/Km ratio ([5]; Ki glyphosate / Km PEP) was 10.0.
